Data: the NIST ThermoML archive (doi:10.1021/je901067c)
Numbers after ± are expanded uncertainties.

How the values were obtained:
[1] = xn = mol fraction of the nth substance listed; conditions: 101 kPa, Liquid; for viscosity: Capillary tube (Ostwald / Ubbelohde) method
[2] = refractive index (Na D-line) (dimensionless); xn = mol fraction of the nth substance listed; conditions: 101 kPa, Liquid, Standard Abbe refractometry

CCC(C)=O [butanone] + CCCCCO
Conditions	mass density, 298.15 K [kg/m3]	mass density, 308.15 K [kg/m3]	mass density, 318.15 K [kg/m3]	refractive index, 298.15 K	refractive index, 308.15 K	refractive index, 318.15 K	viscosity, 298.15 K [mPa·s]	viscosity, 308.15 K [mPa·s]	viscosity, 318.15 K [mPa·s]
[1], x1 = 0.088	809.94 ± 0.55	802.26 ± 0.56	794.44 ± 0.57	–	–	–	2.557 ± 0.019	2.011 ± 0.015	1.608 ± 0.013
[1], x1 = 0.1632	809.15 ± 0.55	801.25 ± 0.56	793.21 ± 0.57	–	–	–	1.997 ± 0.015	1.616 ± 0.013	1.321 ± 0.011
[1], x1 = 0.2427	808.31 ± 0.55	800.16 ± 0.56	791.89 ± 0.57	–	–	–	1.592 ± 0.012	1.304 ± 0.01	1.097 ± 0.009
[1], x1 = 0.3549	807.11 ± 0.55	798.62 ± 0.57	789.99 ± 0.58	–	–	–	1.202 ± 0.01	1.009 ± 0.009	0.852 ± 0.008
[1], x1 = 0.4434	806.15 ± 0.56	797.39 ± 0.57	788.5 ± 0.58	–	–	–	0.983 ± 0.008	0.835 ± 0.008	0.721 ± 0.007
[1], x1 = 0.5597	804.87 ± 0.56	795.76 ± 0.57	786.5 ± 0.58	–	–	–	0.773 ± 0.007	0.667 ± 0.007	0.585 ± 0.006
[1], x1 = 0.6518	803.85 ± 0.56	794.44 ± 0.57	784.88 ± 0.58	–	–	–	0.648 ± 0.006	0.57 ± 0.006	0.5 ± 0.006
[1], x1 = 0.7401	802.85 ± 0.56	793.14 ± 0.57	783.31 ± 0.58	–	–	–	0.554 ± 0.006	0.492 ± 0.006	0.443 ± 0.005
[1], x1 = 0.8477	801.59 ± 0.56	791.54 ± 0.57	781.36 ± 0.59	–	–	–	0.485 ± 0.006	0.427 ± 0.005	0.381 ± 0.005
[1], x1 = 0.9355	800.55 ± 0.56	790.21 ± 0.58	779.73 ± 0.59	–	–	–	0.42 ± 0.005	0.38 ± 0.005	0.345 ± 0.005
[1], x1 = 1	799.76 ± 0.56	789.21 ± 0.58	778.52 ± 0.59	–	–	–	0.391 ± 0.005	0.361 ± 0.005	0.334 ± 0.005
[2], x1 = 0.088	–	–	–	1.4049 ± 0.0009	1.4014 ± 0.0009	1.3976 ± 0.0009	–	–	–
[2], x1 = 0.1632	–	–	–	1.4031 ± 0.0009	1.3997 ± 0.0009	1.3957 ± 0.0009	–	–	–
[2], x1 = 0.2427	–	–	–	1.401 ± 0.0009	1.3976 ± 0.0009	1.3937 ± 0.0009	–	–	–
[2], x1 = 0.3549	–	–	–	1.3979 ± 0.0009	1.3943 ± 0.0009	1.3905 ± 0.0009	–	–	–
[2], x1 = 0.4434	–	–	–	1.3953 ± 0.0009	1.3914 ± 0.0009	1.3878 ± 0.0009	–	–	–
[2], x1 = 0.5597	–	–	–	1.3915 ± 0.0009	1.3873 ± 0.0009	1.3838 ± 0.0009	–	–	–
[2], x1 = 0.6518	–	–	–	1.3883 ± 0.0009	1.3838 ± 0.0009	1.3804 ± 0.0009	–	–	–
[2], x1 = 0.7401	–	–	–	1.3851 ± 0.0009	1.3804 ± 0.0009	1.377 ± 0.0009	–	–	–
[2], x1 = 0.8477	–	–	–	1.381 ± 0.0009	1.376 ± 0.0009	1.3724 ± 0.0009	–	–	–
[2], x1 = 0.9355	–	–	–	1.3776 ± 0.0009	1.3725 ± 0.0009	1.3686 ± 0.0009	–	–	–
[2], x1 = 1	–	–	–	1.375 ± 0.0009	1.37 ± 0.0009	1.3657 ± 0.0009	–	–	–

CCC(O)CC [3-pentanol] + CCC(C)=O
Conditions	mass density, 298.15 K [kg/m3]	mass density, 308.15 K [kg/m3]	mass density, 318.15 K [kg/m3]	refractive index, 298.15 K	refractive index, 308.15 K	refractive index, 318.15 K	viscosity, 298.15 K [mPa·s]	viscosity, 308.15 K [mPa·s]	viscosity, 318.15 K [mPa·s]
[1], x2 = 0	815.79 ± 0.54	806.91 ± 0.56	797.66 ± 0.57	–	–	–	4.625 ± 0.034	2.864 ± 0.022	1.902 ± 0.015
[1], x2 = 0.0843	813.43 ± 0.55	804.58 ± 0.56	795.034 ± 0.57	–	–	–	2.842 ± 0.022	1.965 ± 0.015	1.382 ± 0.011
[1], x2 = 0.1622	811.5 ± 0.55	802.6 ± 0.56	792.888 ± 0.57	–	–	–	2.007 ± 0.015	1.476 ± 0.012	0.9911 ± 0.0086
[1], x2 = 0.2428	809.72 ± 0.55	800.57 ± 0.56	790.723 ± 0.57	–	–	–	1.494 ± 0.012	1.151 ± 0.01	0.7246 ± 0.0069
[1], x2 = 0.3505	807.45 ± 0.55	798.07 ± 0.57	788.175 ± 0.58	–	–	–	1.084 ± 0.009	0.869 ± 0.008	0.5197 ± 0.0058
[1], x2 = 0.4415	805.82 ± 0.56	796.23 ± 0.57	786.285 ± 0.58	–	–	–	0.86 ± 0.008	0.717 ± 0.007	0.417 ± 0.0053
[1], x2 = 0.5584	803.92 ± 0.56	794.1 ± 0.57	784.161 ± 0.58	–	–	–	0.677 ± 0.007	0.578 ± 0.006	0.3306 ± 0.0049
[1], x2 = 0.6526	802.64 ± 0.56	792.64 ± 0.57	782.699 ± 0.58	–	–	–	0.591 ± 0.006	0.506 ± 0.006	0.2938 ± 0.0048
[1], x2 = 0.7399	801.72 ± 0.56	791.55 ± 0.57	781.619 ± 0.59	–	–	–	0.508 ± 0.006	0.448 ± 0.005	0.2919 ± 0.0048
[1], x2 = 0.854	800.8 ± 0.56	790.31 ± 0.58	780.165 ± 0.59	–	–	–	0.445 ± 0.005	0.396 ± 0.005	0.297 ± 0.0048
[1], x2 = 0.9383	800.16 ± 0.56	789.7 ± 0.58	779.212 ± 0.59	–	–	–	0.407 ± 0.005	0.365 ± 0.005	0.3106 ± 0.0048
[2], x2 = 0	–	–	–	1.4047 ± 0.0009	1.4029 ± 0.0009	1.3981 ± 0.0009	–	–	–
[2], x2 = 0.0843	–	–	–	1.4032 ± 0.0009	1.4012 ± 0.0009	1.3965 ± 0.0009	–	–	–
[2], x2 = 0.1622	–	–	–	1.4016 ± 0.0009	1.3995 ± 0.0009	1.3949 ± 0.0009	–	–	–
[2], x2 = 0.2428	–	–	–	1.3999 ± 0.0009	1.3975 ± 0.0009	1.3929 ± 0.0009	–	–	–
[2], x2 = 0.3505	–	–	–	1.3971 ± 0.0009	1.3944 ± 0.0009	1.3901 ± 0.0009	–	–	–
[2], x2 = 0.4415	–	–	–	1.3945 ± 0.0009	1.3916 ± 0.0009	1.3873 ± 0.0009	–	–	–
[2], x2 = 0.5584	–	–	–	1.3908 ± 0.0009	1.3876 ± 0.0009	1.3835 ± 0.0009	–	–	–
[2], x2 = 0.6526	–	–	–	1.3876 ± 0.0009	1.3841 ± 0.0009	1.38 ± 0.0009	–	–	–
[2], x2 = 0.7399	–	–	–	1.3846 ± 0.0009	1.3806 ± 0.0009	1.3767 ± 0.0009	–	–	–
[2], x2 = 0.854	–	–	–	1.3803 ± 0.0009	1.376 ± 0.0009	1.372 ± 0.0009	–	–	–
[2], x2 = 0.9383	–	–	–	1.3773 ± 0.0009	1.3725 ± 0.0009	1.3684 ± 0.0009	–	–	–
